# Assays:
# [1] = test system: GABAA, Flunitrazepam, Central; test: Eurofins Hit Profiling Screen; type: binding; conditions: 10 μmol/L
# LOXL2 [2] = target: T1, LOXL2 (Homo sapiens, UniProt Q9Y4K0); test: Substrate competition (putrescine), LOXL2; type: biochemical; conditions: increasing concentrations of the substrate
# T1 sequence (Q9Y4K0 26-774): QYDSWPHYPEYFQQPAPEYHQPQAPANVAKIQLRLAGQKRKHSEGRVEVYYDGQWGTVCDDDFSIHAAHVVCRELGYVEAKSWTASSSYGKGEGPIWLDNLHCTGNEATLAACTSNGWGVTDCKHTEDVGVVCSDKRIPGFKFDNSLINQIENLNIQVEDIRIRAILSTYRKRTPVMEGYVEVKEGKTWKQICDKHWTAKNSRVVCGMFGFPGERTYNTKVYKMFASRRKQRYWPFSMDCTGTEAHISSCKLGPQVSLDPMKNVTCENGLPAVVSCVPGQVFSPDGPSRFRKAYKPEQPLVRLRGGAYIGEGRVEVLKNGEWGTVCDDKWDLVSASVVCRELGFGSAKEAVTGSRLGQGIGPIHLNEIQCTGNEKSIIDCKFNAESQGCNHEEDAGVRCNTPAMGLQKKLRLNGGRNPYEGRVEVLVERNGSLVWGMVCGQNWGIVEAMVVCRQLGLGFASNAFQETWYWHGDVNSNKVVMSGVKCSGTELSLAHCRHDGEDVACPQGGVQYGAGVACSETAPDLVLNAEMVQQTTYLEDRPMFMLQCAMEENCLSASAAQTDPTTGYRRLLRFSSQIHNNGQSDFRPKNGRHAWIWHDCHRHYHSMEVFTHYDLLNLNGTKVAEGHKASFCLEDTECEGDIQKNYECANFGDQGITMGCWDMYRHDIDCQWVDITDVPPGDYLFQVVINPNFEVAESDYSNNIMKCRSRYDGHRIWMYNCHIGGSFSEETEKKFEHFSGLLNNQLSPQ
# Protocol: (§1) The measurement of the enzymatic activity of all lysyl oxidase family members was based on the detection of hydrogen peroxide with an Amplex-Red oxidation assay, as described in Zhou et al.[1]; miniaturised in 384 well format, with the appropriate combination of substrate and assay buffer for each individual enzyme. After a 30 minute pre-incubation of the enzyme at 37 °C with the test compound (or with different incubation times for the time-dependency assay), one volume of reaction mixture containing 120 μM Amplex Red (AR) (Life Technologies), 1.5 U/mL horseradish peroxidase (HRP) (Sigma-Aldrich) and the specific substrate was added to each sample. The relative fluorescence units (RFU) were then measured every 2.5 minutes for 30 minutes at 37°C, excitation 565 nm and emission 590, on a BMG Clariostar Microplate Reader. All the substrates were used at concentrations corresponding to their Km towards the corresponding enzyme, or with a range of different concentrations for the substrate competition experiments.
# The measurement of substrate competition was based on the release of hydrogen peroxide as previously described. The target enzyme was incubated with the inhibitor, and differing concentrations of the substrate (putrescine) in reaction mixture and measured.
# Prostanoid EP4 = Prostanoid EP4 (Homo sapiens, UniProt P35408); test: Eurofins Hit Profiling Screen; type: binding; conditions: 10 μmol/L
# Prostanoid EP4, sequence (P35408 whole entry): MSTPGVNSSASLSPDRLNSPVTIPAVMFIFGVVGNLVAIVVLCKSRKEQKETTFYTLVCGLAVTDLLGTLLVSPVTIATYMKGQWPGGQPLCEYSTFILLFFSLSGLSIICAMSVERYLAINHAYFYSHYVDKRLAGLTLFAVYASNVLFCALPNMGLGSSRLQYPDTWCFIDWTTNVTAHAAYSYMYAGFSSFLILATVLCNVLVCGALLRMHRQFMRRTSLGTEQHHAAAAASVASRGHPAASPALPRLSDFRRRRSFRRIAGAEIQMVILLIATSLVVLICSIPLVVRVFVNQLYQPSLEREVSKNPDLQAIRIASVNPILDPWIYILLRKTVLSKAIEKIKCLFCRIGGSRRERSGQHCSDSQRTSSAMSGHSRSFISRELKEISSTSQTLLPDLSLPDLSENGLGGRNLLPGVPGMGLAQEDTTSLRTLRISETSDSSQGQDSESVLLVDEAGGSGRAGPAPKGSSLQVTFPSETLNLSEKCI
# LOXL2 [3] = target: T1, LOXL2; test: Amplex-Red fluorometric enzymatic activity assay, recombinant human LOXL2; type: biochemical; parameters: purchased R&D Systems
# Protocol: (§2) The measurement of the enzymatic activity of all lysyl oxidase family members was based on the detection of hydrogen peroxide with an Amplex‐Red oxidation assay, as described in Zhou et al26 Recombinant human semicarbazide sensitive amine oxidase (SSAO/VAP1), diamine oxidase (DAO) and monoamine oxidases A and B (MAO‐A and MAO‐B) assays were performed as previously described.27 For detailed enzymatic procedures, see supporting information.
# as §1
# Lysyl oxidases assay buffer contained 1.2 M urea, 50 mM sodium borate buffer, pH 8.2 and 100 µM β-aminoproprionitrile (BAPN, Sigma-Aldrich) was used for low control.
# Recombinant human LOXL1 was expressed and purified from cDNA (GeneArt) and 10 mM putrescine was used as substrate. Recombinant human and mouse LOXL2 (R&D Systems) were challenged with 5 mM putrescine (Sigma-Aldrich) as the substrate. Rat and dog recombinant LOXL2 were amplified and purified in house from HEK-293 clones kindly provided by Dr. Fernando Rodríguez Pascual, Madrid University, and used in the same conditions as for the human form. 2 mM putrescine was used as the substrate for recombinant human LOXL3 (R&D Systems) and LOXL4 (Dr. Fernando Rodríguez Pascual, university of Madrid, Spain) assays.
# MAO-A = MAO-A (Homo sapiens, UniProt P21397); test: MAO-A enzymatic activity assay; type: biochemical
# MAO-A, sequence (P21397 whole entry): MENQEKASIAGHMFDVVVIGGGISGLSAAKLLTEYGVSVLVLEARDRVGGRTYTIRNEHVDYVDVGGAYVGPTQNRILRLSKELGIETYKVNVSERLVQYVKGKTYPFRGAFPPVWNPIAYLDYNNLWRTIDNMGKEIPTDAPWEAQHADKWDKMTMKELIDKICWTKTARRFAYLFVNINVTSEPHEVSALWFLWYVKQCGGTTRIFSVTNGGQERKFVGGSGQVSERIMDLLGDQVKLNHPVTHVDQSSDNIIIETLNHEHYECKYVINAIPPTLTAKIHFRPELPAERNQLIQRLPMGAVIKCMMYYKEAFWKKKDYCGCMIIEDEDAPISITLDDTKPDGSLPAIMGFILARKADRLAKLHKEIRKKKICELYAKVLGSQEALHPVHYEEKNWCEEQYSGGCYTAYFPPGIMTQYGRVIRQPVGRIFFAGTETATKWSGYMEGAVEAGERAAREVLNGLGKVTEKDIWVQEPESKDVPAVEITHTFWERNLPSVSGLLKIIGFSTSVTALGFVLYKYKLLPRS
# Protocol: as §2
# Recombinant human semicarbazide sensitive amine oxidase (SSAO/VAP1), diamine oxidase (DAO) and monoamine oxidases A and B (MAO-A and MAO-B) assays were performed as previously described.
# [4] = Pharmacokinetic study in rats; type: in vivo, Wistar rats; conditions: rat
# Protocol: Studies were performed by Pharmalegacy (Shanghai, China), GVK (Hyderabad, India) and Sundia, (Shanghai, China), with local ethics approval. Wistar rats were administered PXS‐5153A orally at 10 mg/kg or intravenously at 5 mg/kg, while C57/BL6 mice received PXS‐5153A orally or intravenously at 5 mg/kg. Plasma was analysed for PXS‐5153A by high‐performance liquid chromatography‐mass spectrometry/mass spectrometry (LCMS/MS).
# Myocardial infarction = Myocardial infarction (left coronary artery occlusion); type: in vivo, C57/BL6 mice; conditions: 25 mg/kg q.d., p.o., 4 weeks; compared to infarcted untreated animals
# Protocol: The study was performed by CL Laboratory (Baltimore, USA) with approval from the Institutional Animal Care and Use Committee. Myocardial infarction (MI) was induced in C57/BL6 mice by occluding the left coronary artery. The same surgery but without occluding the left coronary artery was used as a sham control. At 24 hours post‐surgery, animals received echocardiography. Infarcted mice with high cardiac function (FS > 40%) or low cardiac function (FS < 10%) were excluded from the study. The remaining mice were treated q.d., p.o., with 25 mg/kg of PXS‐5153A for 4 weeks. At the end of the experiment, echocardiography was performed on mice to assess left ventricular function and remodelling, followed by heart collection. The heart was fixed with 10% formalin. Fibrosis was assessed in the non‐infarct area. Fibrotic blue area and whole non‐infarct area were measured using computerized planimetry (Image J). The fibrotic area was presented as a percentage of the whole non‐infarct area. Three random fields per heart were counted, averaged and a total of 30‐45 fields per group were measured.
# [5] = 30 minute pre-incubation at 37 °C, average of at least three experiments
smiles,measurement,setting,value
Cc1c(-c2cccc(S(=O)(=O)N(C)C)c2)c2ncccc2n1C/C(F)=C/CN.Cl.Cl [PXS-5153A],% inhibition,[1],26%
same,substrate competition,LOXL2 [2],in a competitive manner
same,% inhibition,Prostanoid EP4,11%
same,IC50,LOXL2 [3]; [5],0.021 µM
same,pIC50 ± SD,LOXL2 [3]; [5],7.7 ± 0.23
same,selectivity for LOXL2 over LOX,LOXL2 [3]; LOXL2 over LOX,> 40 fold
same,selectivity for LOXL2 over LOXL1,LOXL2 [3]; LOXL2 over LOXL1,> 40 fold
same,selectivity over other related amine oxidases,LOXL2 [3]; LOXL2 over other related amine oxidases,> 700 fold
same,rate of inactivation (kinact),"LOXL2 [3]; mechanism-based irreversible inhibition, enzyme not given",0.20 min⁻¹
same,Ki,"LOXL2 [3]; mechanism-based irreversible inhibition, enzyme not given, read-out: apparent binding constant (Ki)",1.01 µM
same,IC50,MAO-A,> 30 µM
same,"Apparent half-life, t1/2",[4]; intravenous 5 mg/kg,78 min
same,Clearance CL,[4]; intravenous 5 mg/kg,180 mL/min/kg
same,Time of maximal concentration Tmax,[4]; intravenous 5 mg/kg,1.8 min
same,Apparent concentration at curve maximum Cmax,[4]; oral 10 mg/kg,33 ng/mL
same,Clearance CL,[4]; oral 10 mg/kg,2029 mL/min/kg
same,Time of maximal concentration Tmax,[4]; oral 10 mg/kg,37.5 min
same,Bioavailability,[4]; oral 10 mg/kg (i.v. 5 mg/kg),10%
same,ejection fraction,Myocardial infarction,improvement
same,fractional shortening,Myocardial infarction,improvement
same,percentage fibrotic coverage area,Myocardial infarction,decrease

# From paper PMC6378217, “The lysyl oxidase like 2/3 enzymatic inhibitor, PXS‐5153A, reduces crosslinks and ameliorates fibrosis” (Journal of Cellular and Molecular Medicine, 2018)
